Here are results for four compounds from patent US9439898B2, “Methods for novel drug discovery, treatment and selective targeting for gefitinib-resistant non-small-cell lung cancer harboring T790M mutation” (Macau University of Science and Technology, priority 2014, dated 2016).

Read-outs that look alike come from different tables or passages of the source.

The subject of experiment [1] is H2228 (EML4-ALK). To be noted: cited from earlier work.
In a further experiment the test system is H1975(EGFR^L858R+T790M). As to the kind of experiment: IC50 of sanguinarine against NSCLC cell line H1975. It is filed as cell-based. To be noted: for IC50: Homo sapiens, NCI-H1975. The text has this: (§1) Among the five cell lines, H1975 is the most sensitive cells to sanguinarine treatment, while A549 is the most resistant one.
The next experiment relates to HCC827(EGFR^L858R). Description: IC50 of sanguinarine against NSCLC cell line HCC827. It is filed as cell-based. Particulars: Homo sapiens.
Excerpt: as §1

The test system of experiment [2] is H1650 (EGFR^Exon19 deletion). Description: IC50 of sanguinarine against NSCLC cell line H1650. It is filed as cell-based. To be noted: Homo sapiens, NCI-H1650.
Excerpt: as §1

The subject of experiment [3] is H2228 (EML4-ALK). Description: IC50 of sanguinarine against NSCLC cell line H2228. It is filed as cell-based. Particulars: Homo sapiens, NCI-H2228.
Excerpt: as §1

A further experiment concerns A549 (EGFR^wild-type). Description: IC50 of sanguinarine against NSCLC cell line A549. Particulars: Homo sapiens. It is filed as cell-based.
Excerpt: as §1

A further experiment has as its system H1975. Description: Blocking of sanguinarine-induced apoptosis and EGFR degradation in H1975. It is filed as cell-based. Particulars: H1975, 24 hrs, flow cytometry. From the text: The fold change of treated group is normalized to untreated group. Results are expressed as mean±S.E.M. The data represent mean±S.E.M. of three independent experiments. (n=3, ***p<0.001). In FIG. 6B, the up-regulation of NOX 3 by sanguinarine is also confirmed on protein level, which is corresponding to the degradation of EGFR. […] One of representative data is shown (n=3). FIG. 6D uses real-time PCR to detect the RNA expression level of Msr A in five NSCLC cell lines. The expression level of Msr in other 5 cell lines is normalized to that of BEAS-2B cell line. The data represent mean±S.E.M. of three independent experiments (n=3, *p<0.05, **p<0.01, ***p<0.001). The result in this example supports that NADPH oxidase and methionine sulfoxide reductase are key enzymes involved in the ROS generation induced by […] in gefitinib-resistant NSCLC. Schematic diagram of how methionine (Met) is oxidized by NADPH oxidase (ROS) and reduced by methionine sulfoxide reductase is shown in FIG. 5. FIG. 7 is a cell model further illustrating how sanguinarine and H2O2 act on the signaling pathway of inducing EGFR degradation in H1975 cells, and thereby leading to apoptosis of the cells. […]

The test system of experiment [4] is total EGFR, EGFR (pY845) and EGFR (pY1068) in H1975 cells. Description: Western blot of EGFR markers in H1975 cells. It is filed as cell-based. To be noted: 25 μM H2O2. The text has this: (§2) FIG. 2A is a control. Among the four cell lines, only H1975 cells have additional T790M mutation on EGFR. […] Compared with sanguinarine, effect of H2O2 on suppression of these markers in H1975 cells is relatively less significant. […] The EGFR degradation is also specific in NSCLC cells having T790M mutation by using sanguinarine or H2O2.

For experiment [5], the system named is total EGFR, EGFR (pY845) and EGFR (pY1068) in A594 cells. As to the kind of experiment: Western blot of EGFR markers in A594 cells. It is filed as cell-based. To be noted: H2O2.
Excerpt: as §2

Experiment [6] has as its system EGFR construct having double mutation (L858R and T790M) in HEK293 cells. Description: Western blot of total EGFR in HEK293 cells transfected with EGFR L858R+T790M double mutation. It is filed as cell-based. The procedure: HEK293 cells are used in this example as cell model to be transfected with different constructs of EGFR (wild-type, L858R mutation, Exon 19 deletion, L858R+T790M double mutation). In FIG. 3A, 3 μM saguinarine is added into the HEK293 transfected with different EGFR constructs.

Experiment [7] deals with short EGFR peptide containing the T790M mutation (LIMQL). Description: ESI-MS of methionine oxidation in short EGFR peptide. To be noted: 10-100 μM H2O2 for 10 min. It is filed as biochemical. The text has this:
The methionine amino acid of a short EGFR peptide containing the T790M mutation could be easily oxidized in a dose-dependent manner under oxidative stress condition. […] A peptide equivalent to the amino acid sequence position from 788 to 792 of EGFR in wild-type (LITQL) and T790M mutant (LIMQL) of EGFR (Sequence acquired from Pubmed database; SEQ. ID. NO. 2/GenBank Accession number of amino acid is NP_005219) is synthesized and both of them are subject to mass spectrometry. In FIG. 4A, ESI-MS detects the standard peptide of LIMQL and oxidized form of the peptide (LIM(O)QL). They are used as standard of the MS pattern of the un-oxidized form of methionine (“M”) and the oxidized form methionine (“M(O)”) for the EGFR short peptide. FIG. 4B-G are ESI-MS results of oxidized methionine in peptide treated with different concentrations of H2O2: FIG. 4B is for H2O2 untreated sample; FIG. 4C is for sample treated with 10 μM H2O2 for 10 min; FIG. 4D is for sample treated with 20 μM H2O2 for 10 min; FIG. 4E is for sample treated with 40 μM H2O2 for 10 min; FIG. 4F is for sample treated with 80 μM H2O2 for 10 min; FIG. 4G is for sample treated with 100 μM H2O2 for 10 min. One of representative data is shown (n=3).

In the case of `COc1cc2ncnc(Nc3ccc(F)c(Cl)c3)c2cc1OCCCN1CCOCC1` [Gefitinib], the Gefitinib resistance result in the experiment with H2228 (EML4-ALK) [1] is “resistance”.

As for `C[n+]1cc2c3c(ccc2c2ccc4cc5c(cc4c21)OCO5)OCO3` [sanguinarine], the “IC50 value in H1975 fold lower than that of A549” value in the experiment on H1975(EGFR^L858R+T790M) (H1975 vs A549) turned out to be 8 fold. In addition, the “IC50 value in H1975 fold lower than that of H1650” value in the experiment on H1975(EGFR^L858R+T790M) (H1975 vs H1650) stood at 5.1 fold. For the same compound, the “IC50 value in H1975 fold lower than that of H2228” value in the experiment with H1975(EGFR^L858R+T790M) (H1975 vs H2228) came out at 5.4 fold. The “IC50 value in H1975 fold lower than that of HCC827” value in the experiment on H1975(EGFR^L858R+T790M) (H1975 vs HCC827) amounted to 3 fold. Also, the IC50 in the experiment on H1975(EGFR^L858R+T790M) (H1975, 24 hrs, read-out: IC50 value Treatment (24 hrs)) is 680 ± 240 nM; in the experiment on H1975(EGFR^L858R+T790M) (H1975, 48 hrs, read-out: IC50 value Treatment (48 hrs)), 580 ± 140 nM; in the experiment on HCC827(EGFR^L858R) (HCC827, 24 hrs, read-out: IC50 value Treatment (24 hrs)), 1900 ± 248 nM; in the experiment on HCC827(EGFR^L858R) (HCC827, 48 hrs, read-out: IC50 value Treatment (48 hrs)), 1060 ± 270 nM; in experiment [2] (H1650, 24 hrs, read-out: IC50 value Treatment (24 hrs)), 3470 ± 1310 nM; in experiment [2] (H1650, 48 hrs, read-out: IC50 value Treatment (48 hrs)), 2640 ± 1310 nM. Besides, the IC50 in the experiment on H2228 (EML4-ALK) [3] (H2228, 24 hrs, read-out: IC50 value Treatment (24 hrs)) was found to be 3730 ± 1230 nM; with H2228 (EML4-ALK) [3] (H2228, 48 hrs, read-out: IC50 value Treatment (48 hrs)) it was 3080 ± 1560 nM; in the experiment with A549 (EGFR^wild-type) (A549, 24 hrs, read-out: IC50 value Treatment (24 hrs)) it was 5710 ± 1730 nM; in the experiment on A549 (EGFR^wild-type) (A549, 48 hrs, read-out: IC50 value Treatment (48 hrs)), 3830 ± 1110 nM.

Turning to `c1ccc2c(c1)[I+]c1ccccc1-2` [DPI], in the experiment with H1975, the “blocking of apoptosis and degradation of EGFR induced by sanguinarine” value is “blocks the apoptosis and the degradation of EGFR”.

On to `OO` [H2O2], for which, in [4], the “expression level of total EGFR and pY845 EGFR” value is “slightly reduced”. Further, in experiment [5], the “level of all markers (total EGFR, pY845 EGFR, pY1068 EGFR)” value is on record as “no significant change”. Besides, the “total EGFR level” value is given as “significant reduction” in [6] (200 μM H2O2) and “more significant reduction” in [6] (300 μM H2O2). Besides, the “oxidation of methionine in short EGFR peptide” value in [7] was “oxidized by ROS in a time- and dose-dependent manner”.
